BindingDB's records for PubMed 2156866 (Nagoya University School of Medicine, 1990)

Tests used:
Experiment in all cases: Enzyme Assay
Conditions in all cases: 30 °C
[1] = target: Calcium/calmodulin-dependent protein kinase type II subunit beta (Homo sapiens, UniProt Q13554)
Source text: (§1) Protein kinase C, cAMP dependent protein kinase, cGMP dependent protein kinase and myosin light chain kinase activity were measure under conditions described by Hidaka. Casein kinases I and II activities were meas8ured as described by Chijiwa. Ca/ calmodulin kinase II activity was measure d by the method described by McGuinness.

[2] = target: Casein kinase I isoform alpha (Homo sapiens, UniProt P48729)
Sequence of Casein kinase I isoform alpha (P48729 whole entry, canonical isoform): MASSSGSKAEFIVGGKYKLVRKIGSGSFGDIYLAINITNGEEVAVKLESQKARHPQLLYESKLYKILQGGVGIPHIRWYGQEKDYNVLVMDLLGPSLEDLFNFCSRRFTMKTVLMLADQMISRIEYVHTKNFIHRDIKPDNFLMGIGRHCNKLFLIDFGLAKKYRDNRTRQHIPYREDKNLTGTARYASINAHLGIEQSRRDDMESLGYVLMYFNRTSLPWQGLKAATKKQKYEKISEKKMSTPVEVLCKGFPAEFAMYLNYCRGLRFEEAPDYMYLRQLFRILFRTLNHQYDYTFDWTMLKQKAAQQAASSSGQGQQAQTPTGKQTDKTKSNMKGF
Source text: as §1

[3] = target: Casein kinase II subunit alpha (Homo sapiens, UniProt P68400)
Sequence of Casein kinase II subunit alpha (P68400 whole entry): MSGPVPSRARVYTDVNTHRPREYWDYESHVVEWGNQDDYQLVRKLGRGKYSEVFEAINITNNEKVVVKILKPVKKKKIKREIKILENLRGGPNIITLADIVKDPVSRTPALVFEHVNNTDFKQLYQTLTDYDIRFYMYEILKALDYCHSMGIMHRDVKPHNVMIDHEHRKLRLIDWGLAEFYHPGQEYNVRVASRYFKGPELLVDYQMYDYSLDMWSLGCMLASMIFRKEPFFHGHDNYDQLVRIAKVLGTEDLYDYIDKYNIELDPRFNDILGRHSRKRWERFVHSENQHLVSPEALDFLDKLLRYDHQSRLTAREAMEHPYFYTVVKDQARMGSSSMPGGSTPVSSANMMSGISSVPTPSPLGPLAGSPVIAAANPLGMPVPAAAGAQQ
Source text: as §1

[4] = target: Protein kinase C alpha type (Homo sapiens, UniProt P17252)
Source text: as §1

[5] = target: cAMP-dependent protein kinase catalytic subunit alpha (Homo sapiens, UniProt P17612)
Source text: as §1

[6] = target: T1, cGMP-dependent protein kinase 1 (Homo sapiens, UniProt Q13976)
T1 sequence (Q13976 whole entry): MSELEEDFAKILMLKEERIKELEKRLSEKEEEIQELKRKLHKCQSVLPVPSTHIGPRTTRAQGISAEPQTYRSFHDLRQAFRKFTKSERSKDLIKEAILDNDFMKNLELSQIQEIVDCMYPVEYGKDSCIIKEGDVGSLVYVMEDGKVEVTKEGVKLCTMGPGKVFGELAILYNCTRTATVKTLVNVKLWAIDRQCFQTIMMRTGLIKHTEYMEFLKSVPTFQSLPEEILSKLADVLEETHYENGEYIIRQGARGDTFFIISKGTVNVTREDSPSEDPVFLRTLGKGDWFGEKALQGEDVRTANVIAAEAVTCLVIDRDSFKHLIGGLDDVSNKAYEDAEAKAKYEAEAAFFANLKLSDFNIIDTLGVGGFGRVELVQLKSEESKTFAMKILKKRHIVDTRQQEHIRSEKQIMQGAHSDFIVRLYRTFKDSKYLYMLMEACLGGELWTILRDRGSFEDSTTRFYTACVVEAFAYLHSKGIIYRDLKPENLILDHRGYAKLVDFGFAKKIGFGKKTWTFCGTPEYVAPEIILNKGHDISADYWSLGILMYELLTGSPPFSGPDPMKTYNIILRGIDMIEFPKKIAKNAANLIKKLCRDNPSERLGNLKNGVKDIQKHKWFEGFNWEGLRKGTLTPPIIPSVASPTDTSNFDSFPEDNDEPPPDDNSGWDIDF
Source text: as §1

Sequence of Calcium/calmodulin-dependent protein kinase type II subunit beta (Q13554 whole entry): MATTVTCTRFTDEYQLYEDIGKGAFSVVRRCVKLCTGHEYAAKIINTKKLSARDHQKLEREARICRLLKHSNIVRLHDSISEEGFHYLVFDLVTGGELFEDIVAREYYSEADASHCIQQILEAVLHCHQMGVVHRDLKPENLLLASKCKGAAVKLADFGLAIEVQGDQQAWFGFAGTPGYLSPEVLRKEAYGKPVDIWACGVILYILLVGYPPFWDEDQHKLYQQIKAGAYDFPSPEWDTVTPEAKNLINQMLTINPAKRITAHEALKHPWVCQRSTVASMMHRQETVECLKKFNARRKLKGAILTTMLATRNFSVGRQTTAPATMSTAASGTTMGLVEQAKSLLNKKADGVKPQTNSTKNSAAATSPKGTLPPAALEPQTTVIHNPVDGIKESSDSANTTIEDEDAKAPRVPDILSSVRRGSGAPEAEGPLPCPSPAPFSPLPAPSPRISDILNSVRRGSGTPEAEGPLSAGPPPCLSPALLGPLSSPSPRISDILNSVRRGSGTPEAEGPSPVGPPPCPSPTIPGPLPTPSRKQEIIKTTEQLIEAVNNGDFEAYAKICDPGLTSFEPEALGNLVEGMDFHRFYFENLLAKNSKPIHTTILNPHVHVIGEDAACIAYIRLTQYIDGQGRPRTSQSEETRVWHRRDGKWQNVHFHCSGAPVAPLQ

Ki [1] [µM]	Ki [2] [µM]	Ki [3] [µM]	Ki [4] [µM]	Ki [5] [µM]	Ki [6] [µM]	SMILES
71.3	60.7	104	75.7	0.36	0.76	O=S(=O)(NCCNC/C=C/c1ccccc1)c1cccc2cnccc12 [H-88]
29.7					0.48	O=S(=O)(NCCNC/C=C/c1ccc(Br)cc1)c1cccc2cnccc12
